One test deals with T1, MMP-9 (Homo sapiens, UniProt P14780).
T1 construct: from tissue; host or cells: human polymorphonuclear leukocytes (PMN) from whole blood (New York Blood Center), PMA-stimulated supernatant
The test is described as follows: Thiopeptilide MMP-9 Inhibition Assay. The format is biochemical. To be noted: for inhibition at 5 µM: read-out: MMP-9: Thiopep. % inhibition; for IC50: pH 6.5, x (n) = average of n determinations, read-out: MMP-9: Thiopep. IC50.

The target in another test is T2, MMP-3 (Homo sapiens, UniProt P08254).
T2 construct: Truncated Prostromelysin-257 was expressed in a soluble form in E.coli; made in house; host or cells: E. coli
Description: Primary Thiopeptilide MMP-3 Inhibition Assay. The format is biochemical. The settings on record: for IC50: pH 6.5, 13 nM stromelysin, x (n) = average of n determinations, read-out: MMP-3 Thiopep. IC50; for inhibition at 5 µM: read-out: MMP-3 Thiopep. % inhibition.

Molecules are shown by their SMILES. Counter-ions that a name gives are not always drawn.

T1 sequence (P14780 107-707 limits assumed): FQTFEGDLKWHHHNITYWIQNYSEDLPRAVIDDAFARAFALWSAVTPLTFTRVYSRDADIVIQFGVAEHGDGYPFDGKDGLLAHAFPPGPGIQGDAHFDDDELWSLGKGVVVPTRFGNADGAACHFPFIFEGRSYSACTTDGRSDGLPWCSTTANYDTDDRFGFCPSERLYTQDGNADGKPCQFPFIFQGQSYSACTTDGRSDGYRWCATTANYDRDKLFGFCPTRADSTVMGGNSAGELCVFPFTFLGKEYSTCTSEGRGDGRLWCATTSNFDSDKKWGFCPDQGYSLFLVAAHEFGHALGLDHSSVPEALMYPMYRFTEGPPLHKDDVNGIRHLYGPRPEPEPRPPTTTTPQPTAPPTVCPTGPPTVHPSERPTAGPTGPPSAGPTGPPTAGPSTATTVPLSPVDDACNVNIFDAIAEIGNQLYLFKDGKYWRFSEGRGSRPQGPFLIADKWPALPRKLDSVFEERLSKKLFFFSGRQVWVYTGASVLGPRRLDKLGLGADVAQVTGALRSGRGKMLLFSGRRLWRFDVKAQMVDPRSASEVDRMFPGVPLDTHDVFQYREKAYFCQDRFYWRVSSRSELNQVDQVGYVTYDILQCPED
T2 sequence (P08254 100-274 limits assumed): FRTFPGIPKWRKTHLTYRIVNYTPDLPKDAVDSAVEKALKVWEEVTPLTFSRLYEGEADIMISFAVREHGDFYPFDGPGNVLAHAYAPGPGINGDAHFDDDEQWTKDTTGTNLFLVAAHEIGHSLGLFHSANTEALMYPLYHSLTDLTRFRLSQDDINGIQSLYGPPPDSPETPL
Description for MMP-3: Enzyme: recombinant stromelysin expressed in E.coli and purified as described above. […] The protocols for the assay of compounds as stromelysin inhibitors was the same as that used for MMP-9 except that the assay buffer was 50 mM MES, pH 6.5 containing 150 mM NaCl, 10 mM CaCl2, 0.005% Brij, and 1% DMSO.

By inhibition is commonly meant the change of the read-out against control, counted positive when it falls. The term IC50 denotes the point on the concentration scale where inhibition reaches its midpoint. `CCN(CC)CCCC(CC(=O)c1ccc(-c2ccc(Cl)cc2)cc1)C(=O)O` (stereo not drawn) [Example 265, [1,1'-Biphenyl]-4-butanoic acid, 4'-chloro-α-[3-(diethylamino)propyl]-γ-oxo-, trifluoroacetate]: the inhibition at 5 µM at MMP-9 was found to be 42%. Further, on MMP-3, the 50% inhibitory concentration (IC50) was 2900 nM.
Consider `O=C(CC(Sc1ccccc1)C(=O)O)c1ccc(-c2ccc(Cl)cc2)cc1` (stereo not drawn) [Example 251, [1,1'-Biphenyl]-4-butanoic acid, 4'-chloro-γ-oxo-α-(phenylthio)-], for which the IC50 came to 7500 nM at MMP-9 and 640 nM on MMP-3.
As for `Nc1ccc(-c2ccc(C(=O)CC(CCCc3ccccc3)C(=O)O)cc2)cc1` (stereo not drawn) [Example 58, [1,1'-Biphenyl]-4-butanoic acid, 4'-amino-γ-oxo-α-(3-phenylpropyl)-], the IC50 came to 1500 nM on MMP-9 and 1200 nM on MMP-3.
Turning to `C=CCC(CC(=O)c1ccc(-c2ccc(Cl)cc2)cc1)C(=O)O` (stereo not drawn) [Example 119, [1,1'-Biphenyl]-4-butanoic acid, 4'-chloro-γ-oxo-α-2-propenyl-], the values for the concentration for half-maximal inhibition (IC50) on MMP-9 and at MMP-3 were 1800 nM and 760 nM, respectively.
For the molecule `COC(=O)c1ccccc1S[C@H]1CC[C@H](C(=O)c2ccc(-c3ccc(Cl)cc3)cc2)[C@H]1C(=O)O` (relative stereo) [Example 298, trans-5-[4-(4-chlorophenyl)phenylcarbonyl]-cis-2-(2-methoxycarbonylphenylthio)cyclopentanecarboxylic acid], the IC50 came out at 850 nM at MMP-9 and 50 nM on MMP-3.
On to `CCC(C)(CC(=O)O)CC(=O)c1ccc(-c2ccc(Cl)cc2)cc1` (stereo not drawn) [Example 335, [1,1'-Biphenyl]-4-pentanoic acid, 4'-chloro-β-ethyl-β-methyl-δ-oxo-], for which the IC50 at MMP-9 is 6000 nM. In addition, the inhibition at 5 µM on MMP-3 turned out to be 55%.
Regarding `O=C(CC(CCCc1ccccc1)C(=O)O)c1ccc(-c2ccc(F)c(Cl)c2)cc1` (stereo not drawn) [Example 74, [1,1'-Biphenyl]-4-butanoic acid, 3'-chloro-4'-fluoro-γ-oxo-α-(3-phenylpropyl)-], the inhibition at 5 µM at MMP-9 is 38%. Also, on MMP-3, the IC50 was determined as 2300 nM.
For the molecule `CC(C)CC(CC(=O)c1ccc(-c2ccccc2F)cc1)C(=O)O` (stereo not drawn) [Example 17, [1,1'-Biphenyl]-4-butanoic acid, 2'-fluoro-α-(2-methylpropyl)-γ-oxo-], the inhibition at 5 µM at MMP-9 came to 0%; at MMP-3, 35%.
Turning to `O=C(CC(CCCc1ccccc1)C(=O)O)c1ccc(-c2ccc(CO)cc2)cc1` (stereo not drawn) [Example 53, [1,1'-Biphenyl]-4-butanoic acid, 4'-(hydroxymethyl)-γ-oxo-α-(3-phenylpropyl)-], the IC50 at MMP-9 turned out to be 800 nM; at MMP-3 it was 950 nM.
For the molecule `CCc1ccc(-c2ccc(C(=O)CC(CC(C)C)C(=O)O)cc2)cc1` (stereo not drawn) [Example 16, [1,1'-Biphenyl]-4-butanoic acid, 4'-ethyl-α-(2-methylpropyl)-γ-oxo-], the values for the IC50 at MMP-9 and at MMP-3 were 3100 nM and 620 nM, respectively.
In the case of `O=C(O)CCC(=O)c1ccc(-c2ccc(F)cc2F)cc1` [Example 11, [1,1'-Biphenyl]-4-butanoic acid, 2',4'-difluoro-γ-oxo-, reference compound], the inhibition at 5 µM on MMP-9 came to 0%; at MMP-3, 14%.
In the case of `CCc1ccc(-c2ccc(C(=O)CC(CC(C)C)C(=O)O)nc2)cc1` (stereo not drawn) [Example 61, 2-Pyridinebutanoic acid, 5-(4-ethylphenyl)-α-(2-methylpropyl)-γ-oxo-], the inhibition at 5 µM at MMP-9 amounted to 22%; at MMP-3, 35%.
Consider `O=C(CC(CCCc1ccccc1)C(=O)O)c1ccc(-c2ccc(OCCCc3ccccc3)cc2)cc1` (stereo not drawn) [Example 90, [1,1'-Biphenyl]-4-butanoic acid, γ-oxo-4'-(3-phenylpropoxy)-α-(3-phenylpropyl)-], for which the inhibition at 5 µM was determined as 11% at MMP-9 and 36% on MMP-3.
Turning to `CCCCOc1ccc(-c2ccc(C(=O)CC(CCCc3ccccc3)C(=O)O)cc2)cc1` (stereo not drawn) [Example 89, [1,1'-Biphenyl]-4-butanoic acid, 4'-butoxy-γ-oxo-α-(3-phenylpropyl)-], the figures for the IC50 on MMP-9 and at MMP-3 were 480 nM and 111 nM, respectively.
Consider `CNC(=O)[C@@H]1CCCN1C(=O)C(CC(=O)c1ccc(-c2ccc(Cl)cc2)cc1)CC(C)C` (stereo partly drawn) [Example 346, 2-Pyrrolidinecarboxamide, 1-[2-[2-(4'-chloro[1,1'-biphenyl]-4-yl)-2-oxoethyl]-4-metyl-1-oxopentyl]-N-methyl-, (2S)-], for which, on MMP-9, the inhibition at 5 µM was determined as 34%. The IC50 at MMP-3 was 6000 nM.
As to `CC(C)CC(CC(=O)c1ccc(-c2ccc(C#N)cc2)cc1)C(=O)O` (stereo not drawn) [Example 46, [1,1'-Biphenyl]-4-butanoic acid, 4'-cyano-α-(2-methylpropyl)-γ-oxo-], the IC50 at MMP-9 was 4000 nM; at MMP-3 it was 700 nM.
Regarding `C#CCC(CC(=O)c1ccc(-c2ccc(Cl)cc2)cc1)C(=O)O` (stereo not drawn) [Example 121, [1,1'-Biphenyl]-4-butanoic acid, 4'-chloro-γ-oxo-α-2-propynyl-], the inhibition at 5 µM on MMP-9 is 45%. The IC50 on MMP-3 worked out at 1000 nM.
In the case of `O=C(CC(CSCCc1ccccc1)C(=O)O)c1ccc(-c2ccc(Cl)cc2)cc1` (stereo not drawn) [Example 205, [1,1'-Biphenyl]-4-butanoic acid, 4'-chloro-γ-oxo-α-[[(2-phenylethyl)thio]methyl]-], the IC50 on MMP-9 stood at 170 nM; at MMP-3, 87 nM.
In the case of `COc1ccc(SCC(CC(=O)c2ccc(-c3ccc(Cl)cc3)cc2)C(=O)O)cc1OC` (stereo not drawn) [Example 215, [1,1'-Biphenyl]-4-butanoic acid, 4'-chloro-α-[[(3,4-dimethoxyphenyl)thio]methyl]-γ-oxo-], the IC50 stood at 1200 nM on MMP-9 and 1300 nM at MMP-3.
In the case of `O=C(CC(CCCc1ccccc1)C(=O)O)c1ccc(-c2cc(Cl)cc(Cl)c2)cc1` (stereo not drawn) [Example 66, [1,1'-Biphenyl]-4-butanoic acid, 3',5=-dichloro-γ-oxo-α-(3-phenylpropyl)-], the values for the inhibition at 5 µM at MMP-9 and at MMP-3 were 11% and 7%, respectively.
Take `O=C(CC(CSc1ccccc1Cl)C(=O)O)c1ccc(-c2ccc(Cl)cc2)cc1` (stereo not drawn) [Example 230, [1,1'-Biphenyl]-4-butanoic acid, 4'-chloro-α-[[(2-chlorophenyl)thio]methyl]-γ-oxo-]: the IC50 at MMP-9 was 550 nM; at MMP-3, 250 nM.
The like results for `CC(C)CC(CCC(=O)O)C(=O)c1ccc(-c2ccc(Cl)cc2)cc1` (centres unmarked) [Example 342] were, in that order, 700 nM and 360 nM.
`CC(C)SCC(CC(=O)c1ccc(-c2ccc(Cl)cc2)cc1)C(=O)O` (stereo not drawn) [Example 239, [1,1'-Biphenyl]-4-butanoic acid, 4'-chloro-α-[[(1-methylethyl)thio]methyl]-γ-oxo-]: on MMP-9, the inhibition at 5 µM was 53%. Also, the IC50 on MMP-3 was 490 nM.
In the case of `O=C(CC(CCc1ccccc1)C(=O)O)c1ccc(-c2ccc(Cl)cc2)cc1` (stereo not drawn) [Example 132, [1,1'-Biphenyl]-4-butanoic acid, 4'-chloro-γ-oxo-α-(2-phenylethyl)-], the values for the IC50 at MMP-9 and on MMP-3 were 2600 nM and 112 nM, respectively.
In the case of `CC(C)(CC(=O)c1ccc(-c2ccc(Cl)cc2)cc1)C(=O)O` [Example 282, [1,1'-Biphenyl]-4-butanoic acid, 4'-chloro-α,α-dimethyl-γ-oxo-], the values for the inhibition at 5 µM at MMP-9 and on MMP-3 were 0% and 2%, respectively.
As for `CC(C)(C)c1ccc(SCC(CC(=O)c2ccc(-c3ccc(Cl)cc3)cc2)C(=O)O)cc1` (stereo not drawn) [Example 213, [1,1'-Biphenyl]-4-butanoic acid, 4'-chloro-α-[[(4-(1,1-dimethylethyl)phenyl]thio]methyl]-γ-oxo-], the inhibition at 5 µM on MMP-9 came out at 41%. In addition, at MMP-3, the IC50 was found to be 2500 nM.
For `O=C(O)[C@@H]1CCC[C@H]1C(=O)c1ccc(-c2ccc(Cl)cc2)cc1` (relative stereo) [Example 289, Cyclopentanecarboxylic acid, 2-[(4'-chloro[1,1'-biphenyl]-4-yl)carbonyl]-, trans-], the results for the concentration for half-maximal inhibition (IC50) on MMP-9 and on MMP-3 were 910 nM and 348 nM, respectively.
On to `COc1ccc(CCC(CC(=O)c2ccc(-c3ccc(Cl)cc3)cc2)C(=O)O)cc1` (stereo not drawn) [Example 187, [1,1'-Biphenyl]-4-butanoic acid, 4'-chloro-α-[2-(4-methoxyphenyl)ethyl]-γ-oxo-], for which the IC50 was 1500 nM on MMP-9 and 757 nM on MMP-3.
On to `O=C(O)CCC(=O)c1ccc(-c2ccc(Cl)cc2)cc1` [Example 6, [1,1'-Biphenyl]-4-butanoic acid, 4'-chloro-γ-oxo-, reference compound], for which the inhibition at 5 µM at MMP-9 turned out to be 38%. Besides, the IC50 at MMP-3 stood at 2100 nM.
As for `O=C(CC(Cc1ccc(-c2ccccc2)cc1)C(=O)O)c1ccc(-c2ccc(Cl)cc2)cc1` (stereo not drawn) [Example 182, [1,1'-Biphenyl]-4-butanoic acid, α-([1,1'-biphenyl]-4-ylmethyl)-4'-chloro-γ-oxo-], the inhibition at 5 µM at MMP-9 came to 17%; at MMP-3, 7%.
Take `O=Cc1ccc(-c2ccc(C(=O)CC(CCCc3ccccc3)C(=O)O)cc2)cc1` (stereo not drawn) [Example 78, [1,1'-Biphenyl]-4-butanoic acid, 4'-formyl-γ-oxo-α-(3-phenylpropyl)-]: the IC50 on MMP-9 amounted to 1200 nM; at MMP-3 it was 310 nM.
On to `O=C(CC(CSc1ccccc1C(=O)O)C(=O)O)c1ccc(-c2ccc(Cl)cc2)cc1` (centres unmarked) [Example 233], for which the IC50 on MMP-9 came out at 4800 nM; on MMP-3, 339 nM.
On to `COc1ccc(-c2ccc(C(=O)CC(CCCc3ccccc3)C(=O)O)cc2)cc1` (stereo not drawn) [Example 73, [1,1'-Biphenyl]-4-butanoic acid, 4'-methoxy-γ-oxo-α-(3-phenylpropyl)-], for which the values for the concentration for half-maximal inhibition (IC50) at MMP-9 and on MMP-3 were 600 nM and 220 nM, respectively.
`O=C(CC(CSc1ccccc1F)C(=O)O)c1ccc(-c2ccc(Cl)cc2)cc1` (stereo not drawn) [Example 218, [1,1'-Biphenyl]-4-butanoic acid, 4'-chloro-α-[[(2-fluorophenyl)thio]methyl]-γ-oxo-]: the IC50 at MMP-9 worked out at 435 nM; on MMP-3, 170 nM.
